Experimental data as given in ChEMBL document CHEMBL3885881, “DrugMatrix”.

Species: Rattus norvegicus
Test: DrugMatrix - Regimen: Daily Repeat
Format: toxicity, organism-based, Sprague-Dawley
Set-up: regimen Daily Repeat, gender Male, age 6-8 weeks
Settings: in vivo, po, route oral GAVAGE, vehicle .5 % CMC; for ABSOLUTE BASOPHIL / ABSOLUTE EOSINOPHIL / ABSOLUTE LYMPHOCYTE / ABSOLUTE MONOCYTE / ABSOLUTE SEGMENTED NEUTROPHIL / BASOPHIL / EOSINOPHIL / ERYTHROCYTE COUNT / HEMATOCRIT / HEMOGLOBIN / LEUKOCYTE COUNT / LYMPHOCYTE / MEAN CORPUSCULAR HEMOGLOBIN / MEAN CORPUSCULAR HEMOGLOBIN CONCENTRATION / MEAN CORPUSCULAR VOLUME / MONOCYTE / NEUTROPHIL / NUCLEATED RED BLOOD CELLS / PLATELET COUNT: tissue Blood; for ALANINE AMINOTRANSFERASE / ALBUMIN / ALKALINE PHOSPHATASE / ASPARTATE AMINOTRANSFERASE / BLOOD UREA NITROGEN / CARBON DIOXIDE / CHLORIDE / CHOLESTEROL / CREATINE PHOSPHOKINASE / CREATININE / GLUCOSE / LACTATE DEHYDROGENASE / LIPASE / PHOSPHORUS / POTASSIUM / SODIUM / TOTAL BILIRUBIN / TOTAL PROTEIN / URIC ACID: tissue Plasma
[1] = 50 mg/kg, 72 h, dose level Low, time 3 day
[2] = 50 mg/kg, 120 h, dose level Low, time 5 day
[3] = 1200 mg/kg, 72 h, dose level High, time 3 day
[4] = 1200 mg/kg, 120 h, dose level High, time 5 day

CC[C@H](C)C(=O)O[C@H]1CCC=C2C=C[C@H](C)[C@H](CC[C@@H]3C[C@@H](O)CC(=O)O3)[C@H]21 [MEVASTATIN]
ABSOLUTE BASOPHIL [1]: 0 CELLS/uL
ABSOLUTE EOSINOPHIL [1]: 41.33 CELLS/uL
ABSOLUTE LYMPHOCYTE [1]: 11887.33 CELLS/uL
ABSOLUTE MONOCYTE [1]: 84.33 CELLS/uL
ABSOLUTE SEGMENTED NEUTROPHIL [1]: 587 CELLS/uL
BASOPHIL [1]: 0%
EOSINOPHIL [1]: 0.33%
ERYTHROCYTE COUNT [1]: 5.78 x10E6/uL
HEMATOCRIT [1]: 37.3%
HEMOGLOBIN [1]: 14.77 G/DL
LEUKOCYTE COUNT [1]: 12.6 x10E3/uL
LYMPHOCYTE [1]: 94.33%
MEAN CORPUSCULAR HEMOGLOBIN [1]: 25.53 pg
MEAN CORPUSCULAR HEMOGLOBIN CONCENTRATION [1]: 39.6 G/DL
MEAN CORPUSCULAR VOLUME [1]: 64.47 fL
MONOCYTE [1]: 0.67%
NEUTROPHIL [1]: 4.67%
NUCLEATED RED BLOOD CELLS [1]: 1 /100WBC
PLATELET COUNT [1]: 1148.33 x10E3/uL
ALANINE AMINOTRANSFERASE [1]: 48.67 u/L
ALBUMIN [1]: 4.43 G/DL
ALKALINE PHOSPHATASE [1]: 400 u/L
ASPARTATE AMINOTRANSFERASE [1]: 85.67 u/L
BLOOD UREA NITROGEN [1]: 16 mg/dL
CARBON DIOXIDE [1]: 25.33 mmol/L
CHLORIDE [1]: 100.33 MEQ/L
CHOLESTEROL [1]: 87 mg/dL
CREATINE PHOSPHOKINASE [1]: 404 u/L
CREATININE [1]: 0.2 mg/dL
GLUCOSE [1]: 161 mg/dL
LACTATE DEHYDROGENASE [1]: 232.67 u/L
LIPASE [1]: 8.67 u/L
PHOSPHORUS [1]: 14.2 mg/dL
POTASSIUM [1]: 6.89 MEQ/L
SODIUM [1]: 146.63 MEQ/L
TOTAL BILIRUBIN [1]: 0.33 mg/dL
TOTAL PROTEIN [1]: 6.2 G/DL
URIC ACID [1]: 1.93 mg/dL
ABSOLUTE BASOPHIL [2]: 0 CELLS/uL
ABSOLUTE EOSINOPHIL [2]: 47 CELLS/uL
ABSOLUTE LYMPHOCYTE [2]: 15631 CELLS/uL
ABSOLUTE MONOCYTE [2]: 0 CELLS/uL
ABSOLUTE SEGMENTED NEUTROPHIL [2]: 1122 CELLS/uL
BASOPHIL [2]: 0%
EOSINOPHIL [2]: 0.33%
ERYTHROCYTE COUNT [2]: 5.52 x10E6/uL
HEMATOCRIT [2]: 35.63%
HEMOGLOBIN [2]: 13.8 G/DL
LEUKOCYTE COUNT [2]: 16.8 x10E3/uL
LYMPHOCYTE [2]: 93%
MEAN CORPUSCULAR HEMOGLOBIN [2]: 25.03 pg
MEAN CORPUSCULAR HEMOGLOBIN CONCENTRATION [2]: 38.77 G/DL
MEAN CORPUSCULAR VOLUME [2]: 64.6 fL
MONOCYTE [2]: 0%
NEUTROPHIL [2]: 6.67%
NUCLEATED RED BLOOD CELLS [2]: 1 /100WBC
PLATELET COUNT [2]: 1219.33 x10E3/uL
ALANINE AMINOTRANSFERASE [2]: 52.67 u/L
ALBUMIN [2]: 4.5 G/DL
ALKALINE PHOSPHATASE [2]: 335.67 u/L
ASPARTATE AMINOTRANSFERASE [2]: 79.67 u/L
BLOOD UREA NITROGEN [2]: 15.67 mg/dL
CARBON DIOXIDE [2]: 25.67 mmol/L
CHLORIDE [2]: 103 MEQ/L
CHOLESTEROL [2]: 67.33 mg/dL
CREATINE PHOSPHOKINASE [2]: 212.33 u/L
CREATININE [2]: 0.19 mg/dL
GLUCOSE [2]: 153.33 mg/dL
LACTATE DEHYDROGENASE [2]: 162 u/L
LIPASE [2]: 9 u/L
PHOSPHORUS [2]: 12.43 mg/dL
POTASSIUM [2]: 6.8 MEQ/L
SODIUM [2]: 146.23 MEQ/L
TOTAL BILIRUBIN [2]: 0.23 mg/dL
TOTAL PROTEIN [2]: 6.3 G/DL
URIC ACID [2]: 1.63 mg/dL
ABSOLUTE BASOPHIL [3]: 0 CELLS/uL
ABSOLUTE EOSINOPHIL [3]: 56 CELLS/uL
ABSOLUTE LYMPHOCYTE [3]: 15055 CELLS/uL
ABSOLUTE MONOCYTE [3]: 329 CELLS/uL
ABSOLUTE SEGMENTED NEUTROPHIL [3]: 1226.67 CELLS/uL
BASOPHIL [3]: 0%
EOSINOPHIL [3]: 0.33%
ERYTHROCYTE COUNT [3]: 5.72 x10E6/uL
HEMATOCRIT [3]: 38.57%
HEMOGLOBIN [3]: 15.2 G/DL
LEUKOCYTE COUNT [3]: 16.67 x10E3/uL
LYMPHOCYTE [3]: 90.33%
MEAN CORPUSCULAR HEMOGLOBIN [3]: 26.6 pg
MEAN CORPUSCULAR HEMOGLOBIN CONCENTRATION [3]: 39.43 G/DL
MEAN CORPUSCULAR VOLUME [3]: 67.5 fL
MONOCYTE [3]: 2%
NEUTROPHIL [3]: 7.33%
NUCLEATED RED BLOOD CELLS [3]: 0.67 /100WBC
PLATELET COUNT [3]: 1303 x10E3/uL
ALANINE AMINOTRANSFERASE [3]: 47.67 u/L
ALBUMIN [3]: 4.63 G/DL
ALKALINE PHOSPHATASE [3]: 402.33 u/L
ASPARTATE AMINOTRANSFERASE [3]: 96.67 u/L
BLOOD UREA NITROGEN [3]: 20 mg/dL
CARBON DIOXIDE [3]: 29.33 mmol/L
CHLORIDE [3]: 102.67 MEQ/L
CHOLESTEROL [3]: 68.33 mg/dL
CREATINE PHOSPHOKINASE [3]: 235 u/L
CREATININE [3]: 0.16 mg/dL
GLUCOSE [3]: 180 mg/dL
LACTATE DEHYDROGENASE [3]: 194 u/L
LIPASE [3]: 9 u/L
PHOSPHORUS [3]: 14.33 mg/dL
POTASSIUM [3]: 7.63 MEQ/L
SODIUM [3]: 146.93 MEQ/L
TOTAL BILIRUBIN [3]: 0.13 mg/dL
TOTAL PROTEIN [3]: 6.37 G/DL
URIC ACID [3]: 2.77 mg/dL
ABSOLUTE BASOPHIL [4]: 0 CELLS/uL
ABSOLUTE EOSINOPHIL [4]: 0 CELLS/uL
ABSOLUTE LYMPHOCYTE [4]: 14826.67 CELLS/uL
ABSOLUTE MONOCYTE [4]: 346.67 CELLS/uL
ABSOLUTE SEGMENTED NEUTROPHIL [4]: 1426.67 CELLS/uL
BASOPHIL [4]: 0%
EOSINOPHIL [4]: 0%
ERYTHROCYTE COUNT [4]: 5.39 x10E6/uL
HEMATOCRIT [4]: 33.63%
HEMOGLOBIN [4]: 13.5 G/DL
LEUKOCYTE COUNT [4]: 16.6 x10E3/uL
LYMPHOCYTE [4]: 89.67%
MEAN CORPUSCULAR HEMOGLOBIN [4]: 25.1 pg
MEAN CORPUSCULAR HEMOGLOBIN CONCENTRATION [4]: 40.2 G/DL
MEAN CORPUSCULAR VOLUME [4]: 62.43 fL
MONOCYTE [4]: 2%
NEUTROPHIL [4]: 8.33%
NUCLEATED RED BLOOD CELLS [4]: 0 /100WBC
PLATELET COUNT [4]: 1567.67 x10E3/uL
ALANINE AMINOTRANSFERASE [4]: 54.33 u/L
ALBUMIN [4]: 4.5 G/DL
ALKALINE PHOSPHATASE [4]: 319 u/L
ASPARTATE AMINOTRANSFERASE [4]: 97 u/L
BLOOD UREA NITROGEN [4]: 19.33 mg/dL
CARBON DIOXIDE [4]: 33 mmol/L
CHLORIDE [4]: 100.33 MEQ/L
CHOLESTEROL [4]: 65.33 mg/dL
CREATINE PHOSPHOKINASE [4]: 319.67 u/L
CREATININE [4]: 0.19 mg/dL
GLUCOSE [4]: 136.67 mg/dL
LACTATE DEHYDROGENASE [4]: 464 u/L
LIPASE [4]: 8.67 u/L
PHOSPHORUS [4]: 12.33 mg/dL
POTASSIUM [4]: 6.95 MEQ/L
SODIUM [4]: 143.97 MEQ/L
TOTAL BILIRUBIN [4]: 0.2 mg/dL
TOTAL PROTEIN [4]: 6.1 G/DL
URIC ACID [4]: 1.8 mg/dL
